# Experimental data from patent US20250108038A1 (priority 2023, published 2025).
# Several values for one entry are separate records, joined by “and”; a condition that tells them apart may be missing. Equal entries are not always repeated.
# System: Long Evans rats
# Assay: Behavioral satiety sequence (BSS)
# Assay type: in vivo, Long Evans rat
# Text: The Behavioural Satiety Sequence (BSS) is a technique used to evaluate physiological satiety. It is based on the expression of a sequence of behaviors including eating, grooming, locomotor activity, followed by resting, which are typically observed in rodents post-ingestion (Halford et al, 1998, Pharmacology Biochemistry and Behaviour. 61(2): 159-168). The BSS is a widely used model for determining the effects of novel pharmaceuticals on food intake and measures of satiety in rodents (Oliveira et al, 2011, Revista de Nutrição. 24(4) 619-628), and to discriminate the cause of reduced food intake following pharmacological manipulation. For example, treatments that may reduce food intake by non-specific mechanisms, such as immobility, malaise, and taste adulteration, will disrupt this sequence (Halford et al, 1998, Pharmacology Biochemistry and Behaviour. 61(2): 159-168).
# Specifically, 12 male Long-Evans rats were food-deprived for 22 h with a 2 h feeding period each day. Rats were trained to consume daily food during the 2 h period over 25 days. The testing phase was initiated once the rats consistently consumed 16-18 g of food per day with ≤10% variance in amount of feed consumed. Feeding took place in designated individual boxes in a quiet room separate from the housing room. Continuous remote monitoring via video camera during feeding was used to assess the BSS. Food consumption was measured by weighing the total available food before and after the 2 h feeding window, correcting for spillage. Lorcaserin (1 mg/kg) was included as a reference control (Higgins et al, 2011, Neuropsychopharmacology. 37(5): 1177-1191). Subjects were tested using a repeated-measures, Latin square design with 2-3 days wash-out between treatment cycles.
# On scheduled test days, animals were monitored remotely via video camera during the feeding access period. The occurrence of four mutually exclusive behaviors (eating/drinking, grooming, active, rest) were individually scored. Over the 2 h feeding period, behaviors were assessed every 30 seconds. Scores were compiled into 23 5 min timebins (timebin 24 was removed due to early removal of animals) and the frequency of each behavior within each timebin was calculated to determine a temporal frequency of each measure (Rodgers et al, 2010, Pharmacology Biochemistry and Behaviour. 97: 3-14). Percentage time was plotted for each behavioral sequence in each timebin to compare between treatment groups (Higgins et al, 2011, Neuropsychopharmacology. 37(5): 1177-1191).
# [1] = 3 mg/kg, raw data per animal (LT-1 to LT-12)
# [2] = Compound I-19 0.1 mg/kg, AVG of animals LT-1 to LT-12
# [3] = Compound I-19 0.1 mg/kg, AVG of animals LT-1 to LT-12, 0-0.5 hours
compound,measurement,setting,value
Clc1ccc(C2(OCC3OCCO3)c3ccccc3C3=NCCN32)cc1 (stereo not drawn) [Compound I-19],"BSS scoring E (eating/drinking), Time Bin 19 (90-95 TOTAL), AVG","3 mg/kg, AVG of LT-1 to LT-12",0.59
same,"BSS scoring E (eating/drinking), Time Bin 20 (95-100 TOTAL), AVG","3 mg/kg, AVG of LT-1 to LT-12",0.62
same,"BSS scoring E (eating/drinking), Time Bin 21 (100-105 TOTAL), AVG","3 mg/kg, AVG of LT-1 to LT-12",0.56
same,"BSS scoring E (eating/drinking), Time Bin 22 (105-110 TOTAL), AVG","3 mg/kg, AVG of LT-1 to LT-12",0.52
same,"BSS scoring E (eating/drinking), Time Bin 23 (110-115 TOTAL), AVG","3 mg/kg, AVG of LT-1 to LT-12",0.58
same,"BSS scoring E (eating/drinking), Time Bin 24 (115-120 TOTAL), AVG","3 mg/kg, AVG of LT-1 to LT-12",0.37
same,"BSS scoring G (grooming), Time Bin 19 (90-95 TOTAL), AVG","3 mg/kg, AVG of LT-1 to LT-12",0.05
same,"BSS scoring G (grooming), Time Bin 20 (95-100 TOTAL), AVG","3 mg/kg, AVG of LT-1 to LT-12",0.04
same,"BSS scoring G (grooming), Time Bin 21 (100-105 TOTAL), AVG","3 mg/kg, AVG of LT-1 to LT-12",0.06
same,"BSS scoring G (grooming), Time Bin 22 (105-110 TOTAL), AVG","3 mg/kg, AVG of LT-1 to LT-12",0.07
same,"BSS scoring G (grooming), Time Bin 23 (110-115 TOTAL), AVG","3 mg/kg, AVG of LT-1 to LT-12",0.02
same,"BSS scoring G (grooming), Time Bin 24 (115-120 TOTAL), AVG","3 mg/kg, AVG of LT-1 to LT-12",0.02
same,"BSS scoring R (resting), Time Bin 19 (90-95 TOTAL), AVG","3 mg/kg, AVG of LT-1 to LT-12",0.18
same,"BSS scoring R (resting), Time Bin 20 (95-100 TOTAL), AVG","3 mg/kg, AVG of LT-1 to LT-12",0.15
same,"BSS scoring R (resting), Time Bin 21 (100-105 TOTAL), AVG","3 mg/kg, AVG of LT-1 to LT-12",0.16
same,"BSS scoring R (resting), Time Bin 22 (105-110 TOTAL), AVG","3 mg/kg, AVG of LT-1 to LT-12",0.22
same,"BSS scoring R (resting), Time Bin 23 (110-115 TOTAL), AVG","3 mg/kg, AVG of LT-1 to LT-12",0.22
same,"BSS scoring R (resting), Time Bin 24 (115-120 TOTAL), AVG","3 mg/kg, AVG of LT-1 to LT-12",0.18
same,"BSS scoring A (active), Time Bin 19 (90-95 TOTAL)",[1],0 (3×) and 1 (2×) and 2 (5×) and 4 and 5
same,"BSS scoring A (active), Time Bin 20 (95-100 TOTAL)",[1],5 and 0 (5×) and 3 and 4 (3×) and 1 and 2
same,"BSS scoring A (active), Time Bin 21 (100-105 TOTAL)",[1],7 and 0 (6×) and 1 and 5 (3×) and 3
same,"BSS scoring A (active), Time Bin 22 (105-110 TOTAL)",[1],0 (5×) and 1 and 3 (2×) and 5 and 2 (2×) and 8
same,"BSS scoring A (active), Time Bin 23 (110-115 TOTAL)",[1],0 (6×) and 3 (2×) and 5 (2×) and 1 and 6
same,"BSS scoring A (active), Time Bin 24 (115-120 TOTAL)",[1],3 and 0 (3×) and 2 (3×) and 7 (2×) and 1 and 4 (2×)
same,"BSS scoring E (eating/drinking), Time Bin 19 (90-95 TOTAL)",[1],7 (2×) and 8 (2×) and 9 and 6 and 0 and 1 and 5 (3×) and 10
same,"BSS scoring E (eating/drinking), Time Bin 20 (95-100 TOTAL)",[1],4 (3×) and 10 and 5 and 8 (2×) and 9 (2×) and 0 and 7 and 6
same,"BSS scoring E (eating/drinking), Time Bin 21 (100-105 TOTAL)",[1],3 and 10 (2×) and 9 (3×) and 7 (2×) and 0 (2×) and 1 and 2
same,"BSS scoring E (eating/drinking), Time Bin 22 (105-110 TOTAL)",[1],8 and 5 and 7 (3×) and 9 (2×) and 0 (2×) and 3 (2×) and 4
same,"BSS scoring E (eating/drinking), Time Bin 23 (110-115 TOTAL)",[1],10 (3×) and 6 and 0 (2×) and 8 (2×) and 4 and 3 and 5 (2×)
same,"BSS scoring E (eating/drinking), Time Bin 24 (115-120 TOTAL)",[1],6 and 0 (3×) and 8 and 4 (2×) and 7 and 2 (2×) and 1 and 10
same,"BSS scoring G (grooming), Time Bin 19 (90-95 TOTAL)",[1],0 (8×) and 2 (2×) and 1 (2×)
same,"BSS scoring G (grooming), Time Bin 20 (95-100 TOTAL)",[1],0 (8×) and 1 (3×) and 2
same,"BSS scoring G (grooming), Time Bin 21 (100-105 TOTAL)",[1],0 (8×) and 1 and 2 (3×)
same,"BSS scoring G (grooming), Time Bin 22 (105-110 TOTAL)",[1],0 (8×) and 2 (2×) and 1 and 3
same,"BSS scoring G (grooming), Time Bin 23 (110-115 TOTAL)",[1],0 (10×) and 1 (2×)
same,"BSS scoring G (grooming), Time Bin 24 (115-120 TOTAL)",[1],0 (10×) and 1 (2×)
same,"BSS scoring R (resting), Time Bin 19 (90-95 TOTAL)",[1],3 and 0 (5×) and 2 and 1 (3×) and 8 and 6
same,"BSS scoring R (resting), Time Bin 20 (95-100 TOTAL)",[1],1 (4×) and 0 (4×) and 2 (3×) and 8
same,"BSS scoring R (resting), Time Bin 21 (100-105 TOTAL)",[1],0 (5×) and 3 (2×) and 6 and 1 (3×) and 4
same,"BSS scoring R (resting), Time Bin 22 (105-110 TOTAL)",[1],2 (3×) and 0 (2×) and 1 (5×) and 10 and 5
same,"BSS scoring R (resting), Time Bin 23 (110-115 TOTAL)",[1],0 (5×) and 10 and 1 (2×) and 5 (2×) and 2 (2×)
same,"BSS scoring R (resting), Time Bin 24 (115-120 TOTAL)",[1],1 (3×) and 0 (4×) and 2 (2×) and 4 (2×) and 7
same,"BSS scoring A (active), Time Bin 19 (90-95 TOTAL), AVG",[2],0.30
same,"BSS scoring A (active), Time Bin 20 (95-100 TOTAL), AVG",[2],0.13
same,"BSS scoring A (active), Time Bin 21 (100-105 TOTAL), AVG",[2],0.08
same,"BSS scoring A (active), Time Bin 22 (105-110 TOTAL), AVG",[2],0.13
same,"BSS scoring A (active), Time Bin 23 (110-115 TOTAL), AVG",[2],0.21
same,"BSS scoring A (active), Time Bin 24 (115-120 TOTAL), AVG",[2],0.16
same,"BSS scoring E (eating/drinking), Time Bin 19 (90-95 TOTAL), AVG",[2],0.52
same,"BSS scoring E (eating/drinking), Time Bin 20 (95-100 TOTAL), AVG",[2],0.68
same,"BSS scoring E (eating/drinking), Time Bin 21 (100-105 TOTAL), AVG",[2],0.73
same,"BSS scoring E (eating/drinking), Time Bin 22 (105-110 TOTAL), AVG",[2],0.68
same,"BSS scoring E (eating/drinking), Time Bin 23 (110-115 TOTAL), AVG",[2],0.64
same,"BSS scoring E (eating/drinking), Time Bin 24 (115-120 TOTAL), AVG",[2],0.52
same,"BSS scoring G (grooming), Time Bin 19 (90-95 TOTAL), AVG",[2],0.03
same,"BSS scoring G (grooming), Time Bin 20 (95-100 TOTAL), AVG",[2],0.05
same,"BSS scoring G (grooming), Time Bin 21 (100-105 TOTAL), AVG",[2],0.04
same,"BSS scoring G (grooming), Time Bin 22 (105-110 TOTAL), AVG",[2],0.04
same,"BSS scoring G (grooming), Time Bin 23 (110-115 TOTAL), AVG",[2],0.03
same,"BSS scoring G (grooming), Time Bin 24 (115-120 TOTAL), AVG",[2],0.03
same,"BSS scoring R (resting), Time Bin 19 (90-95 TOTAL), AVG",[2],0.15
same,"BSS scoring R (resting), Time Bin 20 (95-100 TOTAL), AVG",[2],0.14
same,"BSS scoring R (resting), Time Bin 21 (100-105 TOTAL), AVG",[2],0.15
same,"BSS scoring R (resting), Time Bin 22 (105-110 TOTAL), AVG",[2],0.15
same,"BSS scoring R (resting), Time Bin 23 (110-115 TOTAL), AVG",[2],0.12
same,"BSS scoring R (resting), Time Bin 24 (115-120 TOTAL), AVG",[2],0.13
same,"BSS scoring A (active), Time Bin 1 (0-5 TOTAL), AVG",[3],0.09
same,"BSS scoring A (active), Time Bin 2 (5-10 TOTAL), AVG",[3],0.04
same,"BSS scoring A (active), Time Bin 3 (10-15 TOTAL), AVG",[3],0.03
same,"BSS scoring A (active), Time Bin 4 (15-20 TOTAL), AVG",[3],0.09
same,"BSS scoring A (active), Time Bin 5 (20-25 TOTAL), AVG",[3],0.08
same,"BSS scoring A (active), Time Bin 6 (25-30 TOTAL), AVG",[3],0.13
same,"BSS scoring E (eating/drinking), Time Bin 1 (0-5 TOTAL), AVG",[3],0.89
same,"BSS scoring E (eating/drinking), Time Bin 2 (5-10 TOTAL), AVG",[3],0.96
same,"BSS scoring E (eating/drinking), Time Bin 3 (10-15 TOTAL), AVG",[3],0.95
